From patent US10874743B2, “IRAK degraders and uses thereof” (Kymera Therapeutics, Inc., priority 2017, dated 2020)

Key:
OCI-LY10 cells = assay: OCI-LY-10 CTG cell viability assay (EC50); format: cell-based; details: Homo sapiens, 96 h, CellTiter-Glo cell viability, 4 days incubation, top concentration 10 μM, read-out: OCI-LY10 IRAK4 EC50
Outline: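 OCI-LY10 cells were exposed to a 9-dose, 1:3 series (top 10 μM, 0.2% DMSO) for 4 days at 37 °C. Viability was measured by CellTiter-Glo luminescence, and EC50 came from a three-parameter logistic fit.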

IRAK4 = target: T1, IRAK4 (Homo sapiens, UniProt Q9NWZ3); assay: OCI-LY-10 MSD assay for IRAK4 DC50; format: cell-based; set-up: endogenous in cells; host or cells: OCI-LY10; details: OCI-LY10 cells, 4 hr incubation, concentration required to degrade 50% of protein
T1 sequence (Q9NWZ3 1-460): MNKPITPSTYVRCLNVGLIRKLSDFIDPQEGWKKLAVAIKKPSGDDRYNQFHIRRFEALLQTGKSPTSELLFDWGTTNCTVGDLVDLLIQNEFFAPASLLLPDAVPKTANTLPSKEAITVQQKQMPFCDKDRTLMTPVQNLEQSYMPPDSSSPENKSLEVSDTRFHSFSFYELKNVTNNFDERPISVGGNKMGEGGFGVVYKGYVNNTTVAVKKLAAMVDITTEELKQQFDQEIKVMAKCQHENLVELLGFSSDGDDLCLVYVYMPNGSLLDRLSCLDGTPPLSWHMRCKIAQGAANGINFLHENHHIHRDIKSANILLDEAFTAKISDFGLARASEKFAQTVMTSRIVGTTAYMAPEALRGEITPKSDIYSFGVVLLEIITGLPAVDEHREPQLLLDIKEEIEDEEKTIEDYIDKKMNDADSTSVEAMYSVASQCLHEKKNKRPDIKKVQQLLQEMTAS
Outline: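 OCI-Ly10 cells were exposed to compound for 4 hr across a 3-fold, 8-point dilution series. Lysates were made in RIPA buffer, and IRAK4 remaining was measured by MSD sandwich immunoassay with anti-IRAK4 capture and detection antibodies. DC50 was taken from a four-parameter logistic fit.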

Structure (SMILES)	EC50 (OCI-LY10 cells) [nM]	DC50 (IRAK4) [nM]
Cn1c(=O)n(C2CCC(=O)NC2=O)c2ccc(CCCOCCNCc3ccc(-n4cc(NC(=O)c5coc(-c6ccnc(NCC(F)(F)F)c6)n5)c(C(F)F)n4)cc3)cc21 (stereo not shown) [I-532]	500 to 1000	< 50
Cn1c(=O)n(C2CCC(=O)NC2=O)c2ccc(CCCOCCCNCc3ccc(-n4cc(NC(=O)c5coc(-c6ccnc(NCC(F)(F)F)c6)n5)c(C(F)F)n4)cc3)cc21 (stereo not shown) [I-534]	> 1000	< 50
Cn1c(=O)n(C2CCC(=O)NC2=O)c2cccc(CCCOCCCNCc3ccc(-n4cc(NC(=O)c5coc(-c6ccnc(NCC(F)(F)F)c6)n5)c(C(F)F)n4)cc3)c21 (stereo not shown) [I-535]	> 1000	< 50
CN[C@@H](C)C(=O)N[C@H](C(=O)N1CCC[C@H]1c1nc(C(=O)c2cccc(OCCOCCOCCOCCOCCOCCNCc3ccc(-n4cc(NC(=O)c5coc(-c6ccnc(NCC7CC7)c6)n5)c(C(F)F)n4)cc3)c2)cs1)C1CCCCC1 [I-553]	> 1000	500 to 1000
CN[C@@H](C)C(=O)N[C@H](C(=O)N1CCC[C@H]1c1nc(C(=O)c2cccc(OCCOCCOCCOCCOCCNCc3ccc(-n4cc(NC(=O)c5coc(-c6ccnc(NCC7CC7)c6)n5)c(C(F)F)n4)cc3)c2)cs1)C1CCCCC1 [I-555]	> 1000	500 to 1000
CN[C@@H](C)C(=O)N[C@H](C(=O)N1CCC[C@H]1c1nc(C(=O)c2cccc(OCCOCCOCCNCc3ccc(-n4cc(NC(=O)c5coc(-c6ccnc(NCC7CC7)c6)n5)c(C(F)F)n4)cc3)c2)cs1)C1CCCCC1 [I-556]	> 1000	500 to 1000
CN1CCN(C(=O)c2nn(-c3ccc(CNCCCCOCCCCc4ccc5c(c4)n(C)c(=O)n5C4CCC(=O)NC4=O)cc3)cc2NC(=O)c2coc(-c3ccnc(NCC(F)(F)F)c3)n2)CC1 (stereo not shown) [I-559]	500 to 1000	> 1000
Cn1c(=O)n(C2CCC(=O)NC2=O)c2ccc(N3CCN(CCOCCNCc4ccc(-n5cc(NC(=O)c6coc(-c7ccnc(NCC(F)(F)F)c7)n6)c(C(N)=O)n5)cc4)CC3)cc21 (stereo not shown) [I-564]	> 1000	100 to 500
NC(=O)c1nn(-c2ccc(CNCCCOCCCc3ccc4c(c3)oc(=O)n4C3CCC(=O)NC3=O)cc2)cc1NC(=O)c1coc(-c2ccnc(NCC(F)(F)F)c2)n1 (stereo not shown) [I-567]	500 to 1000	< 50
NC(=O)c1nn(-c2ccc(CNCCOCCOCCCc3ccc4c(c3)oc(=O)n4C3CCC(=O)NC3=O)cc2)cc1NC(=O)c1coc(-c2ccnc(NCC(F)(F)F)c2)n1 (stereo not shown) [I-568]	100 to 500	< 50
Cn1c(=O)n(C2CCC(=O)NC2=O)c2ccc(CCCN3CCO[C@H](CNCc4ccc(-n5cc(NC(=O)c6coc(-c7ccnc(NCC(F)(F)F)c7)n6)c(C(N)=O)n5)cc4)C3)cc21 (stereo partly shown) [I-572]	100 to 500	< 50
NC(=O)c1nn(-c2ccc(CNCCOCCOCCOC(=O)NCc3ccc4c(c3)CN(C3CCC(=O)NC3=O)C4=O)cc2)cc1NC(=O)c1coc(-c2ccnc(NCC(F)(F)F)c2)n1 (stereo not shown) [I-579]	> 1000	100 to 500
O=C1CCC(N2C[C@H](c3cccc(C#CCN4CCO[C@@H](CNCc5ccc(-n6cc(NC(=O)c7coc(-c8ccnc(NCC9CC9)c8)n7)c(C(F)F)n6)cc5)C4)c3)OC2=O)C(=O)N1 (stereo partly shown) [I-584]	50 to 100	< 50
CN(CC[C@H]1CN(CCCc2ccc3c(c2)n(C)c(=O)n3C2CCC(=O)NC2=O)CCO1)Cc1ccc(-n2cc(NC(=O)c3coc(-c4ccnc(NCC5CC5)c4)n3)c(C(F)F)n2)cc1 (stereo partly shown) [I-592]	< 50	< 50
Cn1c(=O)n(C2CCC(=O)NC2=O)c2cccc(CCCN3CCO[C@H](CNCc4ccc(-n5cc(NC(=O)c6coc(-c7ccnc(NCC(F)(F)F)c7)n6)c(C(N)=O)n5)cc4)C3)c21 (stereo partly shown) [I-593]	100 to 500	< 50
CN(Cc1ccc(-n2cc(NC(=O)c3coc(-c4ccnc(NCC5CC5)c4)n3)c(C(F)F)n2)cc1)C[C@@H]1CN(CCCc2ccc3c(c2)n(C)c(=O)n3C2CCC(=O)NC2=O)CCO1 (stereo partly shown) [I-599]	< 50	100 to 500

Other lines, results leading:

EC50 (OCI-LY10 cells) [nM]	DC50 (IRAK4) [nM]	Structure (SMILES)
< 50	< 50	Cn1c(=O)n(C2CCC(=O)NC2=O)c2cccc(CCCOCCNCc3ccc(-n4cc(NC(=O)c5coc(-c6ccnc(NCC7CC7)c6)n5)c(C(F)F)n4)cc3)c21 (stereo not shown) [I-530]
< 50	< 50	Cn1c(=O)n(C2CCC(=O)NC2=O)c2cccc(CCCNCC3COC4C(CNCc5ccc(-n6cc(NC(=O)c7coc(-c8ccnc(NCC(F)(F)F)c8)n7)c(C(F)F)n6)cc5)COC34)c21 (stereo not shown) [I-536]
< 50	< 50	Cn1c(=O)n(C2CCC(=O)NC2=O)c2ccc(CCCNCC3COC4C(CNCc5ccc(-n6cc(NC(=O)c7coc(-c8ccnc(NCC9CC9)c8)n7)c(C(F)F)n6)cc5)COC34)cc21 (stereo not shown) [I-537]
< 50	500 to 1000	Cn1c(=O)n(C2CCC(=O)NC2=O)c2ccc(CCCOCCOCCNCc3ccc(-n4cc(NC(=O)c5coc(-c6ccnc(NCC7CC7)c6)n5)c(C(F)F)n4)cc3F)cc21 (stereo not shown) [I-539]
< 50	< 50	Cn1c(=O)n(C2CCC(=O)NC2=O)c2ccc(CNCCCCCNCc3ccc(-n4cc(NC(=O)c5coc(-c6ccnc(NCC7CC7)c6)n5)c(C(F)F)n4)cc3)cc21 (stereo not shown) [I-542]
< 50	< 50	Cn1c(=O)n(C2CCC(=O)NC2=O)c2ccc(CNC(=O)COCCNCc3ccc(-n4cc(NC(=O)c5coc(-c6ccnc(NCC7CC7)c6)n5)c(C(F)F)n4)cc3)cc21 (stereo not shown) [I-543]
< 50	< 50	Cn1c(=O)n(C2CCC(=O)NC2=O)c2ccc(CNC(=O)OCCCNCc3ccc(-n4cc(NC(=O)c5coc(-c6ccnc(NCC7CC7)c6)n5)c(C(F)F)n4)cc3)cc21 (stereo not shown) [I-545]
< 50	< 50	O=C1CCC(n2c(=O)oc3c(CCCOCCCNCc4ccc(-n5cc(NC(=O)c6coc(-c7ccnc(NCC8CC8)c7)n6)c(C(F)F)n5)cc4)cccc32)C(=O)N1 (stereo not shown) [I-548]
< 50	< 50	O=C1CCC(n2c(=O)oc3cc(CCCOCCCNCc4ccc(-n5cc(NC(=O)c6coc(-c7ccnc(NCC8CC8)c7)n6)c(C(F)F)n5)cc4)ccc32)C(=O)N1 (stereo not shown) [I-549]
< 50	< 50	O=C1CCC(n2c(=O)oc3cc(CCCOCCOCCNCc4ccc(-n5cc(NC(=O)c6coc(-c7ccnc(NCC8CC8)c7)n6)c(C(F)F)n5)cc4)ccc32)C(=O)N1 (stereo not shown) [I-550]
< 50	< 50	O=C1CCC(n2c(=O)oc3c(CCCOCCOCCNCc4ccc(-n5cc(NC(=O)c6coc(-c7ccnc(NCC8CC8)c7)n6)c(C(F)F)n5)cc4)cccc32)C(=O)N1 (stereo not shown) [I-551]
< 50	< 50	O=C1CCC(n2c(=O)n(CCOCCOCCNCc3ccc(-n4cc(NC(=O)c5coc(-c6ccnc(NCC7CC7)c6)n5)c(C(F)F)n4)cc3)c3ccccc32)C(=O)N1 (stereo not shown) [I-552]
< 50	< 50	O=C1CCC(N2Cc3cc(CNC(=O)OCCNCc4ccc(-n5cc(NC(=O)c6coc(-c7ccnc(NCC8CC8)c7)n6)c(C(F)F)n5)cc4)ccc3C2=O)C(=O)N1 (stereo not shown) [I-558]
< 50	< 50	Cn1c(=O)n(C2CCC(=O)NC2=O)c2ccc(CCCN3CCO[C@@H](CNCc4ccc(-n5cc(NC(=O)c6coc(-c7ccnc(NCC8CC8)c7)n6)c(C(F)F)n5)cc4)C3)cc21 (stereo partly shown) [I-574]
< 50	< 50	Cn1c(=O)n(C2CCC(=O)NC2=O)c2ccc(CCCN3CCO[C@H](CCNCc4ccc(-n5cc(NC(=O)c6coc(-c7ccnc(NCC(F)(F)F)c7)n6)c(C(N)=O)n5)cc4)C3)cc21 (stereo partly shown) [I-576]
< 50	50 to 100	O=C1CCC(N2C[C@H](c3ccc(C#CCCOCCCNCc4ccc(-n5cc(NC(=O)c6coc(-c7ccnc(NCC8CC8)c7)n6)c(C(F)F)n5)cc4)cc3)OC2=O)C(=O)N1 (stereo partly shown) [I-580]
< 50	< 50	Cn1c(=O)n(C2CCC(=O)NC2=O)c2ccc(CN3CCN(CCO[C@H]4C[C@H](NCc5ccc(-n6cc(NC(=O)c7coc(-c8ccnc(NCC9CC9)c8)n7)c(C(F)F)n6)cc5)C4)CC3)cc21 (stereo partly shown) [I-583]
< 50	< 50	O=C1CCC(N2C[C@H](c3ccc(C#CCN4CCO[C@@H](CNCc5ccc(-n6cc(NC(=O)c7coc(-c8ccnc(NCC9CC9)c8)n7)c(C(F)F)n6)cc5)C4)cc3)OC2=O)C(=O)N1 (stereo partly shown) [I-585]
< 50	< 50	Cn1c(=O)n(C2CCC(=O)NC2=O)c2cccc(CCCN3CCO[C@H](CNCc4ccc(-n5cc(NC(=O)c6coc(-c7ccnc(NCC8CC8)c7)n6)c(C(F)F)n5)cc4)C3)c21 (stereo partly shown) [I-587]
< 50	< 50	Cn1c(=O)n(C2CCC(=O)NC2=O)c2cccc(CCCN3CCO[C@@H](CNCc4ccc(-n5cc(NC(=O)c6coc(-c7ccnc(NCC8CC8)c7)n6)c(C(F)F)n5)cc4)C3)c21 (stereo partly shown) [I-588]
< 50	< 50	O=C1CCC(n2c(=O)oc3c(CCCN4CCO[C@@H](CNCc5ccc(-n6cc(NC(=O)c7coc(-c8ccnc(NCC9CC9)c8)n7)c(C(F)F)n6)cc5)C4)cccc32)C(=O)N1 (stereo partly shown) [I-589]
< 50	< 50	O=C1CCC(n2c(=O)oc3c(CCCN4CCO[C@H](CNCc5ccc(-n6cc(NC(=O)c7coc(-c8ccnc(NCC9CC9)c8)n7)c(C(F)F)n6)cc5)C4)cccc32)C(=O)N1 (stereo partly shown) [I-590]
